From paper PMC11188874, “HDAC6 Inhibition Releases HR23B to Activate Proteasomes, Expand the Tumor Immunopeptidome and Amplify T-cell Antimyeloma Activity” (Cancer Research Communications, 2024)

Columns and labels:
RPMI-8226 cells = experiment: Myeloma MHC-I immunopeptidome analysis by MS; type: cell-based, human; settings: BTZ, 18 hours
RPMI8226 cells [1] = experiment: Autophagosome formation (Cyto-ID kit, flow cytometry); type: cell-based, human; settings: 16 h
E.G7-Ova cells = experiment: Quantitation of […]–MHC-I complex by flow cytometry; type: cell-based, mouse
RPMI8226 cells [2] = experiment: Aggresome formation (Proteostat kit, flow cytometry); type: cell-based, human; settings: 16 h
[3] = test system: proteasome ChT-like activity in RPMI-8226 cells; experiment: Cell-based high-throughput screen of proteasome ChT-like activity (LLVY-R110); design: species or system human; settings: 3 µmol/L, 21 hours, then LLVY-R110 18 hours
SIRT2 = target: T1, SIRT2 (Homo sapiens, UniProt Q8IXJ6); experiment: In vitro biochemical activity assay, SIRT2; settings: 10-dose, 3-fold serial dilution; fluorogenic peptide p53 residues 379-382 and NAD
T1 construct: purchased Reaction Biology (Malvern, PA)
T1 sequence (Q8IXJ6 1-389): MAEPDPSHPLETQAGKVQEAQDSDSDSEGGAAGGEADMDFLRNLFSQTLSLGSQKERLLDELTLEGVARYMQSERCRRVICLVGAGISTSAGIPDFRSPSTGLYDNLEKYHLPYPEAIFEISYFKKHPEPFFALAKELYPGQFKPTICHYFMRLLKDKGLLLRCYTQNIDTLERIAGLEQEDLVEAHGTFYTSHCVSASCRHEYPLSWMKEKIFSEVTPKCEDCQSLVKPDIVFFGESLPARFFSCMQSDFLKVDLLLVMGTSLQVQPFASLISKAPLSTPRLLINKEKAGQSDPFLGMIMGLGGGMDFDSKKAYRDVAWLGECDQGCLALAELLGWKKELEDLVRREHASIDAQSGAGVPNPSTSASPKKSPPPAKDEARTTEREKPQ

| SMILES | global peak intensity of peptides (in words) (RPMI-8226 cells) | number of peptides decreased by at least 20-fold (RPMI-8226 cells) | number of peptides with 2-fold or greater decrease (RPMI-8226 cells) | formation of autophagosomes (RPMI8226 cells [1]) | SIINFEKL–MHC-I complex presentation (in words) (E.G7-Ova cells) | formation of aggresomes (RPMI8226 cells [2]) | Fold-Decrease of proteasome ChT-like activity in the HTS [3] [fold] | IC50 (SIRT2) [µM] |
| --- | --- | --- | --- | --- | --- | --- | --- | --- |
| CC(C)C[C@H](NC(=O)[C@H](Cc1ccccc1)NC(=O)c1cnccn1)B(O)O [Bortezomib] | slightly decreased | seven | 1,707 peptides | increased | reduced | increased | 4 | – |
| Cc1ccc(C(=O)Nc2ccc(S(=O)(=O)O)c3cc(S(=O)(=O)O)cc(S(=O)(=O)O)c23)cc1NC(=O)c1cccc(NC(=O)Nc2cccc(C(=O)Nc3cc(C(=O)Nc4ccc(S(=O)(=O)O)c5cc(S(=O)(=O)O)cc(S(=O)(=O)O)c45)ccc3C)c2)c1 [Suramin] | – | – | – | – | – | – | – | 24.3 |
